Laboratory results taken from ChEMBL document CHEMBL5260828, “Amphiphilic glycoconjugates as potential anti-cancer chemotherapeutics” (Eur J Med Chem, 2018).
pIC50: −log10 of the molar value. Converted amounts (≈) assume the structure as drawn. Each block holds one compound with its values, some of them ahead of it.

Tests used:
A549 [1] = assay: Cytotoxicity against human A549 cells incubated for 72 hrs by MTT assay; format: functional, cell-based; conditions: A549, 72 h
K562 [2] = assay: Cytotoxicity against human K562 cells; format: functional, cell-based
K562 [3] = assay: Cytotoxicity against human K562 cells by colorimetric assay; format: functional, cell-based
PC-3 = assay: Cytotoxicity against human PC-3 cells assessed as reduction in cell viability incubated for 48 hrs by MTS assay; format: functional, cell-based
MIA PaCa-2 = assay: Cytotoxicity against human MIA PaCa-2 cells assessed as reduction in cell viability incubated for 48 hrs by MTS assay; format: functional, cell-based
BT-474 = assay: Cytotoxicity against human BT-474 cells assessed as reduction in cell viability incubated for 48 hrs by MTS assay; format: functional, cell-based
DU-145 = assay: Cytotoxicity against human DU-145 cells assessed as reduction in cell viability incubated for 48 hrs by MTS assay; format: functional, cell-based
JIMT-1 = assay: Cytotoxicity against human JIMT-1 cells assessed as reduction in cell viability incubated for 48 hrs by MTS assay; format: functional, cell-based
MDA-MB-231 = assay: Cytotoxicity against human MDA-MB-231 cells assessed as reduction in cell viability incubated for 48 hrs by MTS assay; format: functional, cell-based; conditions: MDA-MB-231, 48 h
SGC-7901 = assay: Cytotoxicity against human SGC-7901 cells incubated for 48 hrs by MTT assay; format: functional, cell-based; conditions: SGC-7901, 48 h
MCF7 = assay: Cytotoxicity against human MCF7 cells incubated for 48 hrs by MTT assay; format: functional, cell-based; conditions: MCF7, 48 h
HepG2 = assay: Cytotoxicity against human HepG2 cells incubated for 48 hrs by MTT assay; format: functional, cell-based; conditions: HepG2, 48 h
A549 [4] = assay: Cytotoxicity against human A549 cells incubated for 48 hrs by MTT assay; format: functional, cell-based; conditions: A549, 48 h
HeLa = assay: Cytotoxicity against human HeLa cells incubated for 48 hrs by MTT assay; format: functional, cell-based
Fatty acid synthase = Fatty acid synthase (Gallus gallus, UniProt P12276); assay: Inhibition of Fatty acid synthase in chicken liver using [3H]-acetyl CoA as substrate preincubated for 30 mins followed by substrate addition and measured after 10 mins in presence of NADPH by scintillation counting analysis; format: tissue-based
Fatty acid synthase, sequence (P12276 whole entry): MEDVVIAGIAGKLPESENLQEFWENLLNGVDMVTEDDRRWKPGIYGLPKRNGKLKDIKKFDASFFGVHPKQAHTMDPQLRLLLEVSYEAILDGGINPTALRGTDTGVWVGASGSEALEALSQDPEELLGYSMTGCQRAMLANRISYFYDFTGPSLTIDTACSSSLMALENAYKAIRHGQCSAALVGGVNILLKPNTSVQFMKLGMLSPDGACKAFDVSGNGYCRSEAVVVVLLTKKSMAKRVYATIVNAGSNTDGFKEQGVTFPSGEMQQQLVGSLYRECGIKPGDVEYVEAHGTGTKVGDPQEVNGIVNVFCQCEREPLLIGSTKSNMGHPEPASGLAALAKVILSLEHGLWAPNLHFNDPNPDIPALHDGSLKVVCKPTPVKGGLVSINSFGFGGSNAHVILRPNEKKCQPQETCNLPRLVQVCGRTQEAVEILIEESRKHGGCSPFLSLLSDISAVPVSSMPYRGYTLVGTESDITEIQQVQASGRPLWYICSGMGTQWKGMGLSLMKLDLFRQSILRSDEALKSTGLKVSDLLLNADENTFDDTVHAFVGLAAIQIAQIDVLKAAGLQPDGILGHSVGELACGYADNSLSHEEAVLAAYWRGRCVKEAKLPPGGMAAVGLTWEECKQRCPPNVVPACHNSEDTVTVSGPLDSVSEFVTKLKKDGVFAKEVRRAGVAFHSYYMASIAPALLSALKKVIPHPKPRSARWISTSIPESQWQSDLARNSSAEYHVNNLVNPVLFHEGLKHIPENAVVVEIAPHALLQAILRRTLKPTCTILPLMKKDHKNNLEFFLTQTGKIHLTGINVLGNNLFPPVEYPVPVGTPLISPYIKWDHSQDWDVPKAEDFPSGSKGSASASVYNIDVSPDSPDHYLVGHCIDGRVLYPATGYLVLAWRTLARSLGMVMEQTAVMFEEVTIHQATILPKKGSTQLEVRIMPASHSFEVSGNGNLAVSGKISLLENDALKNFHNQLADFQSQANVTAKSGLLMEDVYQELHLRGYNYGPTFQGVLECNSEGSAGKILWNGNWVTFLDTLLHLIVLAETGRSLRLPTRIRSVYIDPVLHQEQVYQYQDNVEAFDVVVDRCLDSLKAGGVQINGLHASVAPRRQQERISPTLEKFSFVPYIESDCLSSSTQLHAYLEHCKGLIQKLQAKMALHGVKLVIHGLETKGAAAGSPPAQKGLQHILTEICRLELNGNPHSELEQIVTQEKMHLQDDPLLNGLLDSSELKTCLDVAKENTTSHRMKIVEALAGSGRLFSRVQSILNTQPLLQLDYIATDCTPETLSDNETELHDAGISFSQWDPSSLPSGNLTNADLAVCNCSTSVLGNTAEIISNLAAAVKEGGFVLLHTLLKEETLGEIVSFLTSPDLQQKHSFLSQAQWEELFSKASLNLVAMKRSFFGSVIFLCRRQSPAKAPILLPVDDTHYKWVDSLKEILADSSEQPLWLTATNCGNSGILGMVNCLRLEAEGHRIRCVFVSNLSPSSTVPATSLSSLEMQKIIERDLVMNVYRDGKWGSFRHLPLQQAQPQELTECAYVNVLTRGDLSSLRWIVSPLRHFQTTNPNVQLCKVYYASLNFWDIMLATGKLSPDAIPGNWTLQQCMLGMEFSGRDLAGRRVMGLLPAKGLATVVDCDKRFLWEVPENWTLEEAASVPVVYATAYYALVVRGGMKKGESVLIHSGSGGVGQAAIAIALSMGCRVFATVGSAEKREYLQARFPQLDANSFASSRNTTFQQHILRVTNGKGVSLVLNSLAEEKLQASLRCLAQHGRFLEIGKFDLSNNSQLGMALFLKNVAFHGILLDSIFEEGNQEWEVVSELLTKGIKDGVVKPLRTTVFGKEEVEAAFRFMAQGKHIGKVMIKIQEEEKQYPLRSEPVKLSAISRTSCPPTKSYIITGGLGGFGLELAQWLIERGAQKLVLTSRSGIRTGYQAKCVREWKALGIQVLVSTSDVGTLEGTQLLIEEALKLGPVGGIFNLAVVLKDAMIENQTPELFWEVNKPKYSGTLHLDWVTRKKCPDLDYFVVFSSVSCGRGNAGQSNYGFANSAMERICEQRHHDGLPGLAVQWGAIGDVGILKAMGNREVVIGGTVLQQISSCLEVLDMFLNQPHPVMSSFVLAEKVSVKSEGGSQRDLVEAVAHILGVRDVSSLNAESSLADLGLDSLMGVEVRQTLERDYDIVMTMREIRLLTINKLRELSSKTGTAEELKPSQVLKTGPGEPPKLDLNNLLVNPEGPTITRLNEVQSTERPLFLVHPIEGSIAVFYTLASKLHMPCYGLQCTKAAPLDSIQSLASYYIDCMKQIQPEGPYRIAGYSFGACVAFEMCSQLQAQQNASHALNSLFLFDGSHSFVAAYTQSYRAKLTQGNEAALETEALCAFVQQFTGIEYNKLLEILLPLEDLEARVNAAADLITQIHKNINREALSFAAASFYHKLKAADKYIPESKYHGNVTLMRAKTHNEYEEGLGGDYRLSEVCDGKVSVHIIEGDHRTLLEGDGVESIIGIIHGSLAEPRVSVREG

[5] = target: RAC-alpha serine/threonine-protein kinase (Homo sapiens, UniProt P31749); assay: Inhibition of AKT1 (unknown origin) in presence of ATP by ELISA
RAC-alpha serine/threonine-protein kinase, sequence (P31749 whole entry): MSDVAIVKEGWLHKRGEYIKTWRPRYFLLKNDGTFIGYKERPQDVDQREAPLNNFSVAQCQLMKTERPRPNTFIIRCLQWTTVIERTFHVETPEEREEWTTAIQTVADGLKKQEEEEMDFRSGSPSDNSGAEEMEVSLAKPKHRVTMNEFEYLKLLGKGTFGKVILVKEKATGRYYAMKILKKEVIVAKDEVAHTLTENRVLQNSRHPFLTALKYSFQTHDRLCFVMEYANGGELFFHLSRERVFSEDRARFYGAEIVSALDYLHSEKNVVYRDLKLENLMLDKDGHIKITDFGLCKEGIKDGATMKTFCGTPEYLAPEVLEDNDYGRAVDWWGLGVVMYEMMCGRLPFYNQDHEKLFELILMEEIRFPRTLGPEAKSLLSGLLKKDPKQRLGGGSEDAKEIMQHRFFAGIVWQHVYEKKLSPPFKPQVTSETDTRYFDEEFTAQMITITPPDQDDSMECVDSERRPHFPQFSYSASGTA

SMILES: CCCCCCCCCCCCCC(=O)OCc1cn(C[C@H]2O[C@H](OC)[C@H](O)[C@@H](O)[C@@H]2O)nn1
pIC50 (A549 [1]): 4.68

SMILES: COC(C)(C)/C=C/C/C(C)=C/CC/C(C)=C/Cc1cc(O)c(C)cc1O[C@@H]1O[C@H](COC(C)=O)[C@H](OC(C)=O)[C@H](OC(C)=O)[C@H]1O
IC50 (K562 [2]): 9.4 µg/mL (≈ 14.5 µM)

SMILES: CCCCCCCCCCCCCCCCCCOCC(CO[C@H]1O[C@H](CO)[C@@H](O)[C@H](O)[C@@H]1O)OCC (stereo partly drawn)
pIC50 (K562 [3]): 5.52

SMILES: CCCCCCCCCCCC(=O)OCc1cn(C[C@H]2O[C@H](OC)[C@H](O)[C@@H](O)[C@H]2O)nn1
pIC50 (A549 [1]): 4.68

SMILES: CC(=O)OC[C@H]1O[C@@H](Oc2cc(C)c(O)cc2C/C=C(\C)CC/C=C(\C)C[C@@H](O)C=C(C)C)[C@H](O)[C@@H](OC(C)=O)[C@H]1OC(C)=O
IC50 (K562 [2]): 2.6 µg/mL (≈ 4.11 µM)

SMILES: CCCCCCCCCCCCCCCCOC[C@H](CO[C@H]1O[C@H](CN)[C@@H](O)[C@H](O)[C@H]1NC(=O)CCCc1ccc(N(CCCl)CCCl)cc1)OC
pIC50 (PC-3; PC-3, 48 h): 5.22
pIC50 (MIA PaCa-2; MIA PaCa-2, 48 h): 5.22
pIC50 (BT-474; BT-474, 48 h): 5.22
pIC50 (DU-145; DU-145, 48 h): 5.22
pIC50 (JIMT-1; JIMT-1, 48 h): 5.22
pIC50 (MDA-MB-231): 5.22

SMILES: CCCCCCCC(=O)O[C@H]1[C@H](O[C@@H]2[C@H]3OC(=O)CCCCCCCCC[C@@H](CCCCC)O[C@@H]4O[C@H](CO)[C@@H](O)[C@H](O)[C@H]4O[C@H](O[C@H]2C)[C@@H]3O)O[C@@H](C)[C@H](O[C@@H]2O[C@@H](C)[C@H](OC(=O)[C@@H](C)CC)[C@@H](OC(=O)/C=C/c3ccccc3)[C@H]2O)[C@H]1O[C@@H]1O[C@@H](C)[C@H](O)[C@@H](O)[C@H]1O
pIC50 (SGC-7901): 5.37
pIC50 (MCF7): 5.37
pIC50 (HepG2): 5.37
pIC50 (A549 [4]): 5.37
pIC50 (HeLa): 5.37

pIC50 (Fatty acid synthase): 4.81
SMILES: CCCCCCCCCCCCCCCCCCC/C=C/C(=O)OC[C@H](CO[C@@H]1O[C@H](CO[C@H]2O[C@H](CO)[C@H](O)[C@H](O)[C@H]2O)[C@H](O)[C@H](O)[C@H]1O)OC(=O)CCCCCCCCCCCCCCCCCCC

SMILES: CCCCCCCCCC(=O)O[C@H]1[C@H](O[C@@H]2[C@H]3OC(=O)CCCCCCCCC[C@@H](CCCCC)O[C@@H]4O[C@H](CO)[C@@H](O)[C@H](O)[C@H]4O[C@H](O[C@H]2C)[C@@H]3O)O[C@@H](C)[C@H](O[C@@H]2O[C@@H](C)[C@H](O/C(O)=C(/C)CC)[C@@H](O)[C@H]2OC(=O)/C=C/c2ccccc2)[C@H]1O[C@@H]1O[C@@H](C)[C@H](O)[C@@H](O)[C@H]1O
pIC50 (SGC-7901): 5.37
pIC50 (MCF7): 5.37
pIC50 (HepG2): 5.37
pIC50 (A549 [4]): 5.37
pIC50 (HeLa): 5.37

SMILES: CCCCCCCCCCCCCCCCOC[C@H](CO[C@@H]1O[C@@H](CO)[C@H](O)[C@@H](O)[C@@H]1O)OC
CC50 (PC-3; PC-3, time 48 hrs): 12.5 µM
CC50 (MIA PaCa-2; MIA PaCa-2, time 48 hrs): 7.5 µM
CC50 (BT-474; BT-474, time 48 hrs): 11 µM
CC50 (DU-145; DU-145, time 48 hrs): 12.5 µM
CC50 (JIMT-1; JIMT-1, time 48 hrs): 6.5 µM

SMILES: CCCCCCCCCC(=O)O[C@H]1[C@H](O[C@@H]2[C@H]3OC(=O)CCCCCCCCC[C@@H](CCCCC)O[C@@H]4O[C@H](CO)[C@@H](O)[C@H](O)[C@H]4O[C@H](O[C@H]2C)[C@@H]3O)O[C@@H](C)[C@H](O[C@@H]2O[C@@H](C)[C@H](OC(=O)[C@@H](C)CC)[C@@H](O)[C@H]2O)[C@H]1O[C@@H]1O[C@@H](C)[C@H](O)[C@@H](O)[C@H]1O
pIC50 (SGC-7901): 5.37
pIC50 (MCF7): 5.37
pIC50 (HepG2): 5.37
pIC50 (A549 [4]): 5.37
pIC50 (HeLa): 5.37

SMILES: CC(=O)OC[C@H]1O[C@@H](Oc2cc(C)c(O)cc2C/C=C(\C)CC/C=C(\C)CCC=C(C)C)[C@H](O)[C@@H](OC(C)=O)[C@H]1OC(C)=O
IC50 (K562 [2]): 5.2 µg/mL (≈ 8.43 µM)

pIC50 [5]: < 4.00
SMILES: CCCCCCCCCOC(=O)O[C@H](COC(=O)CCCCCCCCC)COP(=O)(O)O[C@@H]1[C@H](O)[C@H](OP(=O)(O)O)[C@@H](O)[C@H](O)[C@H]1O

SMILES: CCCCCCCCCC(=O)O[C@H]1[C@H](O[C@@H]2[C@H]3OC(=O)CCCCCCCCC[C@@H](CCCCC)O[C@@H]4O[C@H](CO)[C@@H](O)[C@H](O)[C@H]4O[C@H](O[C@H]2C)[C@@H]3O)O[C@@H](C)[C@H](O[C@@H]2O[C@@H](C)[C@H](OC(=O)[C@@H](C)CC)[C@@H](OC(=O)/C=C/c3ccccc3)[C@H]2O)[C@H]1O[C@@H]1O[C@@H](C)[C@H](O)[C@@H](O)[C@H]1O
pIC50 (SGC-7901): 5.37
pIC50 (MCF7): 5.37
pIC50 (HepG2): 5.37
pIC50 (A549 [4]): 5.37
pIC50 (HeLa): 5.37

SMILES: CCCCCCCCCCCC(=O)OCc1cn(C[C@H]2O[C@H](OC)[C@H](O)[C@@H](O)[C@@H]2O)nn1
pIC50 (A549 [1]): 4.68

SMILES: CCCCCCCCCCCCCCCCCCOCC(COC(=O)NCCCO[C@H]1O[C@H](CO)[C@@H](O)[C@H](O)[C@@H]1O)OCC (stereo partly drawn)
pIC50 (K562 [3]): 4.74

SMILES: CC(=O)OC[C@H]1O[C@@H](Oc2cc(C)c(O)cc2C/C=C(\C)CC/C=C(\C)CC(=O)CC(C)C)[C@H](O)[C@@H](OC(C)=O)[C@H]1OC(C)=O
IC50 (K562 [2]): 8.1 µg/mL (≈ 12.8 µM)

SMILES: CCCCCCCCCCCCCCCCCCOCC(CO[C@@H]1O[C@H](CO)[C@@H](O[C@@H]2O[C@H](CO)[C@H](O)[C@H](O)[C@H]2O)[C@H](O)[C@H]1O)OCC (stereo partly drawn)
pIC50 (K562 [3]): 4.74
